Experimental data published in the supplement of paper PMC4862054.

How the values were obtained:
Details in all cases: incubation time: 72 h
HCC1599 [1] = test: normalised viability (% of control), CellTiter-Blue; higher = more viable cells (about 100 = DMSO control)
In short: (§1)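 Compound dissolved in 5 µl medium was pre-loaded into 384-well plates, and breast cancer cell lines in 20 µl suspension were seeded on top and incubated 72 h. After adding 2.5 µl CellTiter-Blue reagent for 2 h at 37 °C, fluorescence was read at 560/590 nm. Plates were normalised to vehicle (100) and a positive kill control (0), with Z'-factor quality control. Each value is normalised viability at a single listed concentration from the series.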

MDA-MB-436 = test: as above
In short: as §1

CAL-51 [2] = test: as above
In short: as §1

Hs578T [3] = test: as above
In short: as §1

BT-474 [4] = test: as above
In short: as §1

HCC1143 [5] = test: as above
In short: as §1

MFM-223 [6] = test: as above
In short: as §1

BT-549 [7] = test: as above
In short: as §1

HCC1937 = test: as above
In short: as §1

HDQ-P1 = test: drug sensitivity score (DSS), CellTox Green (DSS (AUC-based score)); higher = stronger drug effect (viability inhibition or cytotoxicity); extreme values may be limits of the assay
In short: (§2)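 Using 20 µl of cell suspension per well, breast cancer cell lines were seeded into 384-well plates pre-loaded with compound at 5 concentrations in 10-fold steps across a compound-specific 10,000-fold range. Incubation lasted 72 h, after which CellTox Green fluorescence at 485/520 nm and then CellTiter-Glo luminescence, following 10 min at room temperature, were recorded. Each plate was normalised to 0.1 % DMSO and a positive kill control before the drug sensitivity score was derived from the area under the fitted dose-response curve.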

HCC1599 [8] = test: as above
In short: as §2

CAL-120 = test: as above
In short: as §2

CAL-51 [9] = test: as above
In short: as §2

MCF-10A = test: as above
In short: as §2

Hs578T [10] = test: as above
In short: as §2

CAL-85-1 = test: as above
In short: as §2

BT-474 [11] = test: as above
In short: as §2

MDA-MB-453 = test: as above
In short: as §2

HCC1143 [12] = test: as above
In short: as §2

DU-4475 = test: as above
In short: as §2

MFM-223 [13] = test: as above
In short: as §2

BT-549 [14] = test: as above
In short: as §2

CAL-148 = test: as above
In short: as §2

O=P(O)(NCCCl)NCCCl [Ifosfamide mustard]
normalised viability [%]
Details | BT-474 [4] | BT-549 [7] | CAL-51 [2] | HCC1143 [5] | HCC1599 [1] | HCC1937 | Hs578T [3] | MDA-MB-436 | MFM-223 [6]
3 nM | – | – | 106 | – | – | – | – | – | –
10 nM | 128 | 87.2 | – | 99.6 | 96.2 | 72.7 | 106 | 110 | 92.4
30 nM | – | – | 98.3 | – | – | – | – | – | –
100 nM | – | – | 105 | – | – | – | – | – | –
1000 nM | 117 | 91 | – | 99.8 | 106 | 80.2 | 102 | 73.3 | 83.3
10000 nM | 119 | 107 | – | 97.5 | 95.6 | 91.5 | 112 | 104 | 97

Cn1cnc2c(F)c(Nc3ccc(Br)cc3F)c(C(=O)NOCCO)cc21 [MEK-162]
Details | drug sensitivity score
BT-474 [11] | 0
BT-549 [14] | 0
CAL-51 [9] | 0
CAL-85-1 | 0
CAL-120 | 0
CAL-148 | 1.61
DU-4475 | 1.92
HCC1143 [12] | 0
HCC1599 [8] | 0
HDQ-P1 | 1.87
Hs578T [10] | 0
MCF-10A | 0
MDA-MB-453 | 0
MFM-223 [13] | 3.03

normalised viability [%]
Details | BT-474 [4] | BT-549 [7] | CAL-51 [2] | HCC1143 [5] | HCC1599 [1] | HCC1937 | Hs578T [3] | MDA-MB-436 | MFM-223 [6]
0.3 nM | – | – | 112 | – | – | – | – | – | –
1 nM | 119 | 100 | – | 100 | 90.5 | 72.6 | 126 | 114 | 90.8
3 nM | – | – | 104 | – | – | – | – | – | –
10 nM | – | – | 100 | – | – | – | – | – | –
100 nM | 115 | 110 | – | 70.7 | 88.4 | 94.8 | 102 | 76.4 | 89.4
1000 nM | 119 | 108 | – | 61.8 | 76.5 | 88.5 | 97 | 99.6 | 94.5
